Experimental data as given in patent US20240309015A1, “Methods for the Treatment of Fibrotic Disease” (SHY Therapeutics, LLC, priority 2021, published 2024).

How the values were obtained:
[1] = test system: Rho-A; experiment: Ras GTP Binding Domain Inhibition Assay, Rho-A; conditions: at 20 μM; without SOS
Outline: (§1)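 His-tagged GTPases, 10-30 μg/mL in Tris-HCl buffer (pH 7.4 or 7.0, MgCl2, DTT), were immobilised on nickel-coated wells overnight at 4° C. Compounds were added at 20 μM or as serial dilutions for IC50 in 1% DMSO for 3 h at room temperature, ±Sos(556-1049) in the final hour. Bound Cy3/Cy5-GTP (100 nM, 45 min) was read after washing.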

[2] = test system: KRas wild type; experiment: Ras GTP Binding Domain Inhibition Assay, KRas wild type; conditions: at 20 μM; for KRas wild type + SOS: % inh.: with SOS; for KRas wild type: % inh.: without SOS
Outline: as §1

[3] = test system: TNFα; experiment: Mouse TNF Alpha Quantification Assay (LPS-stimulated RAW 264.7); assay type: cell-based; parameters: dose or concentration left out as unconfirmed; conditions: RAW264.7, ELISA, read-out: TNFα: % inh.
[4] = test system: KRas G12C mutant; experiment: Ras GTP Binding Domain Inhibition Assay, KRas G12C mutant; conditions: at 20 μM; for KRas G12C mutant + SOS: % inh.: with SOS; for KRas G12C mutant: % inh.: without SOS
Outline: as §1

[5] = test system: IL-6; experiment: Mouse IL6 Quantification Assay (LPS-stimulated RAW 264.7); assay type: cell-based; parameters: dose or concentration left out as unconfirmed; conditions: RAW264.7, ELISA, read-out: IL-6: % inh.
[6] = test system: Smad2/3 phosphorylation; experiment: Phospho-Smad2/3 Inhibition Assay in PANC-1; assay type: cell-based; conditions: Homo sapiens; 10 μM compound, 3 h; TGF-b1 stimulated PANC-1; western blot; read-out: % inh of Smad2/3 phosphorylation in PANC-1
Method: Cell lines: Human tumor-derived pancreatic cancer cell line Panc-1 and mouse muscle myoblast C2C12 were purchased from American Type Culture Collection and grown in complete DMEM-High Glucose, supplemented with penicillin (100 U/mL), streptomycin (100 μg/mL), and 10% heat-inactivated FBS at 37° C. in a humidified incubator with 5% CO2.
Method: Cells were plated at 350000 cells/well density in a 12-well plate, allowed 3 hours to adhere to the plate, then starved in the appropriate medium in the presence of 0.5% FBS overnight. The small molecules to be tested were added to the cells in the final concentration of 10 μM in the presence of 0.3% DMSO for 3 hours incubation at 37° C. For IC50 value determination, serial dilutions of compounds were added to cells under the same conditions. Next, Panc-1 cells were stimulated with 10 ng/ml TGF-b1 for 1 hour, and C2C12 cells were stimulated with 10 ng/ml TGF-b1 for 20 minutes (recombinant human TGF-b1, R&D Systems). After stimulation cells were lysed with lysis buffer containing 1% Triton X-100, EDTA, and Halt™ Protease & Phosphatase Inhibitor Cocktail (Thermo Scientific). Protein concentration was assessed by BCA protein assay (Thermo Scientific). Phosphorylation level of Smad2/Smad3 was determined by western blot.
Western blot protocol: Equal amounts of protein (15-50 μg) were separated by SDS-PAGE and transferred to nitrocellulose membranes (Invitrogen by Thermo Fisher Scientific). The membrane was stained with Ponceau S Stain (Boston BioProducts) to verify uniform protein loading. Membranes were blocked with 10% milk and phosphorylation levels of Smad2/Smad3 were assessed by incubating overnight at 4° C. with the following antibodies: Phospho-Smad2 (Ser465/467) and Phosph-Smad3 (Ser423/425), both from Cell Signaling Technology. Then the membranes were incubated with HRP-conjugated secondary antibody (Jackson Immunoresearch, West Grove, PA). Bands were incubated in Amersham ECL Prime Western Blotting Detection Reagent (GE Healthcare) and visualized using the ChemiDoc MP imaging system (Bio-Rad).

[7] = test system: KRas G12D mutant; experiment: Ras GTP Binding Domain Inhibition Assay, KRas G12D mutant; conditions: at 20 μM; for KRas G12D mutant + SOS: % inh.: with SOS; for KRas G12D mutant: % inh.: without SOS
Outline: as §1

Row | SMILES | Rho-A: % inh. [1] | KRas wild type + SOS: % inh. [2] | KRas wild type: % inh. [2] | inhibition [3] [%] | KRas G12C mutant + SOS: % inh. [4] | KRas G12C mutant: % inh. [4] | inhibition [5] [%] | inhibition at 10 µM [6] [%] | KRas G12D mutant + SOS: % inh. ([7]; Table 7) | KRas G12D mutant + SOS: % inh. ([7]; Table 8) | KRas G12D mutant: % inh. ([7]; Table 7) | KRas G12D mutant: % inh. ([7]; Table 8)
1 | COCCCn1c(-c2nccn2C)nc2sc(-c3ccn(C(C)C)n3)c(C)c2c1=O [Compound 31, 6-(1-Isopropyl-1H-pyrazol-3-yl)-3-(3-methoxypropyl)-5-methyl-2-(1-methyl-1H-imidazol-2-yl)thieno[2,3-d]pyrimidin-4(3H)-one] | 0 (0 = 0% inhibition) | A (A = 1-25% inhibition) | A (A = 1-25% inhibition) | 0 | 0 (0 = 0% inhibition) | 0 (0 = 0% inhibition) | 46 to 75 | 0 | 0 (0 = 0% inhibition) | 0 (0 = 0% inhibition) | 0 (0 = 0% inhibition) | 0 (0 = 0% inhibition)
2 | COCCCCOc1nc(-c2nccn2C)nc2sc(-c3ccn(C(C)C)n3)c(C)c12 [Compound 34, 6-(1-Isopropyl-1H-pyrazol-3-yl)-4-(4-methoxybutoxy)-5-methyl-2-(1-methyl-1H-imidazol-2-yl)thieno[2,3-d]pyrimidine] | 0 (0 = 0% inhibition) | 0 (0 = 0% inhibition) | A (A = 1-25% inhibition) | 0 | A (A = 1-25% inhibition) | 0 (0 = 0% inhibition) | 76 to 100 | 0 | 0 (0 = 0% inhibition) | 0 (0 = 0% inhibition) | A (A = 1-25% inhibition) | A (A = 1-25% inhibition)
3 | COc1cc(Cn2c(-c3nccn3C)nc3sc(-c4ccn(C(C)C)n4)c(C)c3c2=O)ncn1 [Compound 35, 6-(1-Isopropyl-1H-pyrazol-3-yl)-3-((6-methoxypyrimidin-4-yl)methyl)-5-methyl-2-(1-methyl-1H-imidazol-2-yl)thieno[2,3-d]pyrimidin-4(3H)-one] | 0 (0 = 0% inhibition) | A (A = 1-25% inhibition) | A (A = 1-25% inhibition) | 1 to 25 | A (A = 1-25% inhibition) | 0 (0 = 0% inhibition) | 1 to 25 | 0 | 0 (0 = 0% inhibition) | 0 (0 = 0% inhibition) | A (A = 1-25% inhibition) | A (A = 1-25% inhibition)
4 | Cc1c(-c2ccn(C(C)C)n2)sc2nc(-c3nccn3C)nc(NCC3CCCO3)c12 (racemic) [Compound 26, rac-6-(1-Isopropyl-1H-pyrazol-3-yl)-5-methyl-2-(1-methyl-1H-imidazol-2-yl)-N-((tetrahydrofuran-2-yl)methyl)thieno[2,3-d]pyrimidin-4-amine] | D (D = 76-100% inhibition) | D (D = 76-100% inhibition) | D (D = 76-100% inhibition) | 0 | D (D = 76-100% inhibition) | D (D = 76-100% inhibition) | 76 to 100 | 0 | C (C = 46-75% inhibition) | C (C = 46-75% inhibition) | D (D = 76-100% inhibition) | D (D = 76-100% inhibition)
5 | COCCn1c(-c2nccn2C)nc2sc(-c3ccn(C(C)C)n3)c(C)c2c1=O [Compound 29, 6-(1-Isopropyl-1H-pyrazol-3-yl)-3-(2-methoxyethyl)-5-methyl-2-(1-methyl-1H-imidazol-2-yl)thieno[2,3-d]pyrimidin-4(3H)-one] | D (D = 76-100% inhibition) | D (D = 76-100% inhibition) | D (D = 76-100% inhibition) | 76 to 100 | D (D = 76-100% inhibition) | C (C = 46-75% inhibition) | 76 to 100 | 0 | C (C = 46-75% inhibition) | C (C = 46-75% inhibition) | C (C = 46-75% inhibition) | C (C = 46-75% inhibition)
6 | COc1cccc(Nc2nc(-c3nccn3C)nc3sc(-c4ccn(C(C)C)n4)c(C)c23)c1 [Compound 17, 6-(1-Isopropyl-1H-pyrazol-3-yl)-N-(3-methoxyphenyl)-5-methyl-2-(1-methyl-1H-imidazol-2-yl)thieno[2,3-d]pyrimidin-4-amine] | C (C = 46-75% inhibition) | C (C = 46-75% inhibition) | B (B = 26-45% inhibition) | 76 to 100 | D (D = 76-100% inhibition) | C (C = 46-75% inhibition) | 76 to 100 | 46 to 75 | C (C = 46-75% inhibition) | C (C = 46-75% inhibition) | C (C = 46-75% inhibition) | C (C = 46-75% inhibition)
7 | COCCCOc1nc(-c2nccn2C)nc2sc(-c3ccn(C(C)C)n3)c(C)c12 [Compound 32, 6-(1-Isopropyl-1H-pyrazol-3-yl)-4-(3-methoxypropoxy)-5-methyl-2-(1-methyl-1H-imidazol-2-yl)thieno[2,3-d]pyrimidine] | D (D = 76-100% inhibition) | D (D = 76-100% inhibition) | D (D = 76-100% inhibition) | 76 to 100 | C (C = 46-75% inhibition) | C (C = 46-75% inhibition) | 76 to 100 | 0 | C (C = 46-75% inhibition) | C (C = 46-75% inhibition) | C (C = 46-75% inhibition) | C (C = 46-75% inhibition)
8 | Cc1c(-c2ccn(C(C)C)n2)sc2nc(-c3nccn3C)nc(NCCN3CCOCC3)c12 [Compound 22, 6-(1-Isopropyl-1H-pyrazol-3-yl)-5-methyl-2-(1-methyl-1H-imidazol-2-yl)-N-(2-morpholinoethyl)thieno[2,3-d]pyrimidin-4-amine] | D (D = 76-100% inhibition) | D (D = 76-100% inhibition) | D (D = 76-100% inhibition) | 1 to 25 | D (D = 76-100% inhibition) | D (D = 76-100% inhibition) | 76 to 100 | 0 | D (D = 76-100% inhibition) | D (D = 76-100% inhibition) | D (D = 76-100% inhibition) | D (D = 76-100% inhibition)
